# Source: patent US20220041627A1, “PRODRUGS OF ANTI-CANCER AND ANTI-AUTOIMMUNE DISEASES THERAPEUTIC AGENTS, AND METHODS OF MAKING AND USE THEREOF” (UNIVERSITY OF MARYLAND, BALTIMORE, priority 2018, published 2022)
# Like-named read-outs stand apart in the source and are kept apart here.
# Tests used:
# SR = assay: NCI-60 growth inhibition, SR; type: cell-based, human; conditions: Leukemia SR, 48 h
# Source text: (§1) The anticancer effects of compounds 1a-1b against 60 human cancer cell lines (the Developmental Therapeutics Program of NCI) were studied. The cell lines were derived from different cancer types including leukemia, non-small-cell lung cancer, colon cancer, CNS cancer, melanoma, ovarian cancer, renal cancer, prostate cancer, and breast cancer (Table 1; the assay protocol can be found at: https://dtp.cancer.gov/default.htm). Compound 1a caused over 50% growth inhibition for most tested cell lines. […] Without wishing to be bound by any particular theory, it is believed that the differences in the anticancer effects between compounds 1a and 1b may be due to the more favorable cell membrane permeability of the boronic ester 1a.
# SK-MEL-5 = assay: NCI-60 growth inhibition, SK-MEL-5; type: cell-based, human
# Source text: as §1
# TK-10 = assay: NCI-60 growth inhibition, TK-10; type: cell-based, human
# Source text: as §1
# [1] = tested on: 60 human cancer cell lines; assay: NCI-60 cellular antitumor activity profiling, panel summary; type: cell-based; conditions: 48 h; for inhibition at 50 µM: Homo sapiens
# Source text: as §1
# CCRF-CEM = assay: NCI-60 growth inhibition, CCRF-CEM; type: cell-based, human; conditions: Leukemia CCRF-CEM, 48 h
# Source text: as §1
# MCF7 = assay: NCI-60 growth inhibition, MCF7; type: cell-based, human
# Source text: as §1
# K-562 = assay: NCI-60 growth inhibition, K-562; type: cell-based, human
# Source text: as §1
# NCI-H322M = assay: NCI-60 growth inhibition, NCI-H322M; type: cell-based, human; conditions: Non-Small Cell lung Cancer NCI-H322M, 48 h
# Source text: as §1
# SK-MEL-2 = assay: NCI-60 growth inhibition, SK-MEL-2; type: cell-based, human
# Source text: as §1
# MALME-3M = assay: NCI-60 growth inhibition, MALME-3M; type: cell-based, human; conditions: Melanoma MALME-3M, 48 h
# Source text: as §1
# MOLT-4 = assay: NCI-60 growth inhibition, MOLT-4; type: cell-based, human
# Source text: as §1
# M14 = assay: NCI-60 growth inhibition, M14; type: cell-based, human
# Source text: as §1
# PARP1 = assay: Western blot of PARP1 in MCF7 cells; type: cell-based, human; conditions: 48 h; for expression level of PARP1: compared to vehicle-treated cells; for level of cleavage of PARP1: compared to vehicle-treated controls
# Method: (§2) FIGS. 4A and 4B illustrate the effect of compounds 1a-1b in apoptosis. FIG. 4A: immunofluorescence of DNA cleavage protein γH2Ax was enhanced by using 5-FU and prodrugs 1a-1b. FIG. 4B: immunoblot analysis of MCF-7 cells treated with 5-FU, prodrugs 1a-1b for apoptosis markers PARP1 and Caspase 3. The cells were treated for 48 h with the indicated concentrations of compounds.
# Western Blot Analysis. Treated cells were washed once with PBS and lysed with RIPA lysis buffer (Santa Cruz Biotechnology, SCBT, #24948) supplemented with sodium orthovanadate, PMSF, protease and phosphatase inhibitor cocktails (Sigma Aldrich). Cell lysates were centrifuge for 15 min at 14,000×g and the supernatant was used for immunoblotting. Protein concentration was normalized for the samples and resolved on a 10-13% SDS-PAGE gel. Following transfer to nitrocellulose membrane, specific mouse primary antibodies from SCBT (PARP1 #sc-8007, caspase 3 #sc-7272) and Cell Signaling (cleaved PARP1 #9541, cleaved caspase-3 #9664) were added and incubated overnight. Secondary antibodies corresponding to the host of the primary antibodies was further incubated with the membrane and washed three times to remove excess antibodies. Odyssey Fc Imaging System (LI-COR, Lincoln, Nebr.) was used to quantify the chemiluminescent of the proteins.
# (§3) To understand the mechanism of action of prodrugs 1a-1b, the impact of the treatment of compounds 1a-1b on the γH2AX formation in MCF7 cells were determined using immunofluorescence assay (FIG. 4A). […] The effects of prodrugs 1a-1b on the PARP1 and caspase 3 cleavage in MCF7 cells were also determined using Western blots assays (FIG. 4B). […] Treatment of 5-FU and compounds 1a-1b increased the levels of cleavage of PARP1 and caspase 3 in MCF7 cells, as compared with that in the vehicle-treated controls. Therefore, prodrugs 1a-1b, similar to 5-FU, can induce MCF7 cell apoptosis, which might contribute to their pharmacological actions.
# γH2AX = γH2AX immunofluorescence assay in MCF7 cells; type: cell-based, human; conditions: 48 h
# Method: as §2
# Immunohistochemistry Analysis. MCF7 cells were seeded on poly-D-lysine coated slides. Compounds were incubated with cells for 48 h. Following treatment, cells were washed once in PBS and fixed in 10% formalin for 20 min at room temperature. Methanol was used to permeabilize the cells for 10 min and PBS wash was carried out. Bovine serum albumin was used for 1 h blocking and primary antibodies for γH2AX (SCBT, #sc-517348) was incubated with the cells overnight. Fluorescent secondary antibodies were incubated with cells along with DAPI. Cells were washed trice with PBS and the slides were mounted prior to confocal imaging.
# as §3
# NCI-H522 = assay: NCI-60 growth inhibition, NCI-H522; type: cell-based, human
# Source text: as §1
# SF-295 = assay: NCI-60 growth inhibition, SF-295; type: cell-based, human
# Source text: as §1
# NCI-H226 = assay: NCI-60 growth inhibition, NCI-H226; type: cell-based, human
# Source text: as §1
# HCC-2998 = assay: NCI-60 growth inhibition, HCC-2998; type: cell-based, human
# Source text: as §1
# SNB-75 = assay: NCI-60 growth inhibition, SNB-75; type: cell-based, human
# Source text: as §1
# OVCAR-4 = assay: NCI-60 growth inhibition, OVCAR-4; type: cell-based, human
# Source text: as §1
# MDA-MB-231/ATCC = assay: NCI-60 growth inhibition, MDA-MB-231/ATCC; type: cell-based, human; conditions: Breast Cancer MDA-MB-231/ATCC, 48 h
# Source text: as §1
# UO-31 = assay: NCI-60 growth inhibition, UO-31; type: cell-based, human
# Source text: as §1
smiles,measurement,setting,value
"O=c1[nH]c(=O)n(Cc2ccc(B(O)O)cc2)cc1F [Compound 1b, (4-((5-Fluoro-2,4-dioxo-3,4-dihydropyrimidin-I(2H)-yl)methyl)phenyl)boronic acid]",Growth Inhibition (%),SR; 50 μM,16%
same,Growth Inhibition (%),"SK-MEL-5; Melanoma SK-MEL-5, 50 μM, 48 h",10%
same,Growth Inhibition (%),"TK-10; Renal Cancer TK-10, 50 μM, 48 h",20%
same,growth inhibition for most tested cell lines,"[1]; most cell lines of the NCI-60 panel, 50 μM",less than 50%
same,Growth Inhibition (%),CCRF-CEM; 50 μM,7%
same,Growth Inhibition (%),"MCF7; Breast Cancer MCF7, 50 μM, 48 h",33%
same,Growth Inhibition (%),"K-562; Leukemia K-562, 50 μM, 48 h",18%
same,Growth Inhibition (%),NCI-H322M; 50 μM,12%
same,Growth Inhibition (%),"SK-MEL-2; Melanoma SK-MEL-2, 50 μM, 48 h",7%
same,Growth Inhibition (%),MALME-3M; 50 μM,32%
same,Growth Inhibition (%),"MOLT-4; Leukemia MOLT-4, 50 μM, 48 h",5%
same,Growth Inhibition (%),"M14; Melanoma M14, 50 μM, 48 h",17%
same,expression level of PARP1,PARP1,significantly reduced
same,level of cleavage of PARP1,PARP1,increased
same,γH2AX formation,γH2AX,dramatically increased
same,Growth Inhibition (%),"NCI-H522; Non-Small Cell lung Cancer NCI-H522, 50 μM, 48 h",44%
same,Growth Inhibition (%),"SF-295; CNS Cancer SF-295, 50 μM, 48 h",5%
same,Growth Inhibition (%),"NCI-H226; Non-Small Cell lung Cancer NCI-H226, 50 μM, 48 h",19%
same,Growth Inhibition (%),"HCC-2998; Colon Cancer HCC-2998, 50 μM, 48 h",5%
same,Growth Inhibition (%),"SNB-75; CNS Cancer SNB-75, 50 μM, 48 h",15%
same,Growth Inhibition (%),"OVCAR-4; Ovarian Cancer OVCAR-4, 50 μM, 48 h",2%
same,Growth Inhibition (%),MDA-MB-231/ATCC; 50 μM,13%
same,Growth Inhibition (%),"UO-31; Renal Cancer UO-31, 50 μM, 48 h",27%
"CC1(C)OB(c2ccc(Cn3cc(F)c(=O)[nH]c3=O)cc2)OC1(C)C [Compound 1a, 5-Fluoro-1-(4-(4,4,5,5-tetramethyl-1,3,2-dioxaborolan-2-yl)benzyl)pyrimidine-2,4(1H,3H)-dione]",inhibition at 50 µM,SR; Homo sapiens,60%
same,inhibition at 50 µM,"SK-MEL-5; Homo sapiens, Melanoma SK-MEL-5, 48 h",61%
same,inhibition at 50 µM,"TK-10; Homo sapiens, Renal Cancer TK-10, 48 h",21%
same,inhibition at 50 µM,"[1]; lung cancer NCI-H522, melanoma MDA-MB-435, ovarian cancer OVCAR-3, breast cancer MCF7 and MDA-MB-468 cells, read-out: most significant inhibition",81 to 96%
same,inhibition at 50 µM,"[1]; most cell lines of the NCI-60 panel, read-out: growth inhibition for most tested cell lines",> 50%
same,inhibition at 50 µM,CCRF-CEM; Homo sapiens,62%
same,inhibition at 50 µM,"MCF7; Homo sapiens, Breast Cancer MCF7, 48 h",81%
same,inhibition at 50 µM,"K-562; Homo sapiens, K562, Leukemia K-562, 48 h",70%
same,inhibition at 50 µM,NCI-H322M; Homo sapiens,14%
same,inhibition at 50 µM,"SK-MEL-2; Homo sapiens, Melanoma SK-MEL-2, 48 h",59%
same,inhibition at 50 µM,MALME-3M; Homo sapiens,55%
same,inhibition at 50 µM,"MOLT-4; Homo sapiens, Leukemia MOLT-4, 48 h",45%
same,inhibition at 50 µM,"M14; Homo sapiens, Melanoma M14, 48 h",55%
same,expression level of PARP1,PARP1,significantly reduced
same,level of cleavage of PARP1,PARP1,increased
same,γH2AX formation,γH2AX,dramatically increased
same,inhibition at 50 µM,"NCI-H522; Homo sapiens, Non-Small Cell lung Cancer NCI-H522, 48 h",90%
same,inhibition at 50 µM,"SF-295; Homo sapiens, CNS Cancer SF-295, 48 h",14%
same,inhibition at 50 µM,"NCI-H226; Homo sapiens, Non-Small Cell lung Cancer NCI-H226, 48 h",36%
same,inhibition at 50 µM,"HCC-2998; Homo sapiens, Colon Cancer HCC-2998, 48 h",26%
same,inhibition at 50 µM,"SNB-75; Homo sapiens, CNS Cancer SNB-75, 48 h",62%
same,inhibition at 50 µM,"OVCAR-4; Homo sapiens, Ovarian Cancer OVCAR-4, 48 h",30%
same,inhibition at 50 µM,MDA-MB-231/ATCC; Homo sapiens,14%
same,inhibition at 50 µM,"UO-31; Homo sapiens, Renal Cancer UO-31, 48 h",27%
